Earlier results as cited in US20210169840A1, “COMPOSITION AND METHOD OF AN IRON SUPPLEMENT” (priority 2019, published 2021).

Conditions: in vivo

For carbonyl iron, the absorption is given as roughly 70%.
